Measured values: patent US20230303551A1, “N-CYCLYL-SULFONAMIDES USEFUL FOR INHIBITING RAF” (ALBERT EINSTEIN COLLEGE OF MEDICINE, priority 2020, published 2023)
Entries after “also recorded” stand apart in the source; their conditions may differ.

Legend:
[1] = system: p-ERK1/2 and p-MEK1/2 in SKMEL239-C4 cells; experiment: Wash-out and recovery of MAPK signaling in SKMEL239-C4 cells; format: cell-based; conditions: SKMEL239-C4, 500 nM for 1 hr, then washout
p-MEK in A375 cells = experiment: Wash-out and recovery of MAPK signaling in A375 cells; format: cell-based; conditions: for relative p-MEK1/2 after washout: A375, 500 nM for 1 hr, then washout
Method: Wash-out experiments were conducted in A375 cells. After treatment with inhibitors at 500 nM for 1 h (on time), cells were incubated with fresh medium for the indicated times (off time). p-MEK levels were determined by WB and were quantified by densitometric analysis. p-MEK levels were normalized to total ERK1/2 which was used as loading control and control cells (DMSO treatment). Data were fit to an exponential model using least squares, to obtain apparent half-life (t1/2) values.
(§1) Densitometric data for p-ERK, p-MEK, ERK1/2 (MAPK cellular activity) or BRAF and GAPDH (CETSA analysis) from western blot scanned films were obtained using Image Studio software (LI-COR). Data were corrected to loading control (total ERK1/2 or GAPDH) and normalized to DMSO treated bands (100%) and blot backgrounds (0%). IC50 or Tm values were obtained from non-linear regression fits of normalized data to a four-parameter logistic curve (4PL).

full length BRAF^V600E = full length BRAF^V600E (Homo sapiens, UniProt P15056, V600E); experiment: In vitro residence time (ATP-site tracer T178 displacement, LanthaScreen); format: binding; conditions: kinase ATP-probe displacement
Method: Residence times of inhibitors to recombinant full-length BRAF was determined using an adaptation of the LanthaScreen Eu Kinase Binding Assay (Invitrogen). Initially, binding of inhibitors to his-tagged BRAF labelled with Eu-anti-his antibody at 80-90% saturation was established, by incubating inhibitors and BRAF in PBS buffer (max DMSO 2%) for […] The reactions were then rapidly diluted 25× times in a saturated concentration of the fluorescent ATP-site tracer T178 (Invitrogen). Dissociation of inhibitors from BRAF by T178 tracer was monitored in real-time by detecting the TR-FRET […] to […] emission ratio every 20 sec. The TR-FRET signal was normalized between 100% (no inhibitors present) and 0% (saturated inhibitor binding). Time traces were fit to a single exponential to obtain the half-life (t1/2) of dissociation of inhibitors. Residence times for each inhibitor were calculated as (t1/2)/ln2.

RKO cells = experiment: Cell viability (Cell-Titer Glo), RKO; format: cell-based
Method: (§2) For cell viability and proliferation assays, we followed the manufacturer's protocol for Cell-Titer Glo (Promega). In brief, cells were plated in 96-well plates at a density of 5000 cells per well. The next day, cells were treated with increasing concentrations of inhibitors for 72 hours at 37° C. At the end of the incubation period, 100 μL of Cell-Titer Glo (Promega) was added to each well and further incubated for 15 min at room temperature. Cell viability was determined by measuring luminescence and was detected by a F200 PRO microplate reader (TECAN). Viability assays were performed in at least triplicate and the data normalized to vehicle-treated control wells. IC50 values were determined by nonlinear regression analysis using Prism software (Graphpad). Antiproliferative synergy was determined by co-treatment of inhibitors at indicated concentrations in 96-well plated at a density of 3000 cells per well. Inhibitors or DMSO control were injected using a D300e digital dispenser (TECAN). Extend of synergy was quantified using the BLISS matrix method.

SK-MEL-239-C4 cells = experiment: Cell viability (Cell-Titer Glo), SK-MEL-239-C4; format: cell-based; conditions: SK-MEL-239-C4, 72 hr
Method: as §2

A375 cells = experiment: Cell viability (Cell-Titer Glo), A375; format: cell-based; conditions: Homo sapiens, A-375; A375, 72 hr
Method: as §2

BRAF^V600E [2] = target: T1, BRAF^V600E (Homo sapiens, UniProt P15056, V600E); experiment: Cellular Thermal Shift Assay (CETSA) in A375 cells; format: cell-based; parameters: endogenous in cells; host or cells: A375 melanoma cells; conditions: A375 cells, 1, 5 and 20 μM
Text: as §1
For CETSA analysis, cultured A375 melanoma cells were washed with Dulbecco's phosphate buffered saline (DPBS) and split into 500 μL aliquots (each containing 3,75 million cells) in the same buffer, containing DMSO control (20 μM) or 1, 5 and 20 μM of DAB or DABK. The samples were incubated for 1 hr at room temperature, rotating. After compound incubation, samples (50 μL each) were transferred in PCR tubes and incubated for 3 min in a temperature gradient produced with a C1000 thermal cycler (Bio-Rad). Cells were immediately lysed by repeating freeze-thaw cycles (3× times) in liquid nitrogen. Lysates were spun in a microcentrifuge at 15.000× g for 15 min at 4° C. Equal volumes of supernatants were run on 15-well 4-12% NuPAGE SDS-PAGE gels (Invitrogen), and analyzed by western blot. Results were quantitated by densitometric analysis and were normalized to GAPDH loading control, which is temperature insensitive under these conditions. […]

[3] = system: pERK in melanoma A375 cells expressing BRAF^V600E; experiment: pERK inhibition in A375 cells (Western blot densitometry); format: cell-based; conditions: 1 hr treatment
Method: Western blots were performed from whole cell lysates (WCLs) prepared in lysis buffer containing 50 mM Tris-HCl pH7.5, 1% NP40, 150 mM NaCl, 1 mM EDTA and 10% glycerol in the presence of protease inhibitor cocktail (Roche). WCLs were separated on a 4-12% NuPAGE MES gel (Invitrogen), transferred onto a PVDF membrane, blocked for lhr and immunoblotted with the corresponding antibodies.
as §1

panel of 97 kinases = experiment: KinomeScan; format: binding; conditions: competition screen
A549 cells = experiment: Cell viability and antiproliferative synergy with cobimetinib (Bliss matrix), A549; format: cell-based; conditions: A549, combination with cobimetinib (COB)
Method: as §2

BRAF^V600E [4] = target: T1, BRAF^V600E; experiment: LanthaScreen Eu kinase binding assay
Method: Binding affinity of inhibitors to recombinant full-length BRAF was determined using the LanthaScreen Eu Kinase Binding Assay (Invitrogen) in PBS buffer. Initially, saturated binding of fluorescent Alexa Fluor 647 ATP-site tracer T178 (Invitrogen) on BRAF, which was his-tagged at the N-terminus, was established. T178 tracer was then competed-off by increasing amounts of inhibitors in titration experiments in 96-well plates. Competition was detected by loss of TR-FRET signal. The signal was produced by a FRET pair between an Eu-labeled anti his-tag antibody, which recognizes his-tagged BRAF used in the assay, and the T178 tracer. The europium donor was excited using a 340 nm excitation filter and energy transfer to the T178 tracer was measured using a filter centered at 665 nm with a time delay of 200 μs. The emission ratio was calculated as the 665 nm signal divided by the 615 nm signal. The apparent % inhibition was calculated by least squares fits of the emission ratio. […] The maximum DMSO concentration in the assay was 2%.

BRAF^V600E [5] = target: T1, BRAF^V600E; experiment: Z'-LYTE kinase activity assay, BRAF^V600E; format: biochemical; conditions: equilibrium; ZLYTE
Method: BRAF kinase assays were performed using the Z′-LYTE™ enzymatic assay (Invitrogen, USA). […] Titrations were performed using a 1:3 dilution. Assays were performed using SelectScreen (Invitrogen).

[6] = system: pERK in A375 xenograft tumors; experiment: Pharmacodynamic study, pERK in A375 xenograft tumors; format: in vivo, female SCID mice; conditions: 5 mg/kg single oral dose, A375 mice xenograft
Method: (§3) The pharmacokinetic profile of DAB and DABK was assessed in CD-1 female mice after a single dose at 5 mg/kg by oral gavage. Blood samples were collected at various time points (0.5, 1, 2, 4, 6, 12 and 24 hr after oral gavage) and inhibitor concentrations in plasma determined by an internal standard HPLC-chromatography tandem mass spectrometry method using calibration standards prepared in blank mouse plasma. Reported plasma concentrations are average values from 3 mice per time point. For PD study, tumor xenografts were established by subcutaneous implantation of A375 melanoma cells plus Matrigel (BD Biosciences) into the right flank of female SCID mice. Mice were randomized to treatment and control groups when the average tumor volume reached 100-150 mm^3 and were treated with a single oral dose (PO) of either vehicle or inhibitors at 5 mg/kg. Tumors were harvested at 2, 12 and 24 hr post PO (3 mice per group). Harvested tumors were homogenized in lysis buffer containing 50 mM Tris-HCl pH7.5, 1% NP40, 150 mM NaCl, 1 mM EDTA, 10% glycerol and phosphatase/protease inhibitors. pERK levels in clarified lysates were determined by Western Blotting and were expressed as % inhibition by normalization to average levels from vehicle tumors (0% inhibition). Vehicle formulation for DAB and DABK treatment in both PK and PD was 30% PEG-400, 0.5% Tween-20, 5% Glycerol in PBS.

[7] = Pharmacokinetic profile, mouse plasma levels after oral gavage; format: in vivo, CD-1 female mice; conditions: 5 mg/kg
Method: as §3

Chain of full length BRAF^V600E (P15056 whole entry V600E): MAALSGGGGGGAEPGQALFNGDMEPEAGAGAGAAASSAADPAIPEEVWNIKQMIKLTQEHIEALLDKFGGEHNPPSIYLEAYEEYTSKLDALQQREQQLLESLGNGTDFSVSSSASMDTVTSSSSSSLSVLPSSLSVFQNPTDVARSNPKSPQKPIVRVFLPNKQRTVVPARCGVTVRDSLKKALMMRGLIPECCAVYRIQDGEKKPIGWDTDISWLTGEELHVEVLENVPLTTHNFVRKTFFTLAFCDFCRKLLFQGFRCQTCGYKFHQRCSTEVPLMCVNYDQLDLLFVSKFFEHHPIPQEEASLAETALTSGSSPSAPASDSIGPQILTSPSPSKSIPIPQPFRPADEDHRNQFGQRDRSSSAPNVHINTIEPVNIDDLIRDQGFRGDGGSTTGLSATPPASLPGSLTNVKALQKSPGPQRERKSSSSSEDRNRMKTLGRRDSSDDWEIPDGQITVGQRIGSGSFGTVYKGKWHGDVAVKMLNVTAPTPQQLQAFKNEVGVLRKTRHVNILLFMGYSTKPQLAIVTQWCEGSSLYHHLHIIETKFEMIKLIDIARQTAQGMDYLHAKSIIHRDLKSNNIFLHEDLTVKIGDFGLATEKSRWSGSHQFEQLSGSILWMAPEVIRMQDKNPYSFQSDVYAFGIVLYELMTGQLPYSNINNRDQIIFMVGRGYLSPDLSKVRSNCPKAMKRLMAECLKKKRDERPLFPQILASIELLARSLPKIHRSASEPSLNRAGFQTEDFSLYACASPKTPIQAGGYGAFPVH
T1 sequence (P15056 whole entry V600E): as above

| SMILES | IC50 (SK-MEL-239-C4 cells; 72 h) | p-MEK1/2 inhibition after washout [1] | relative p-ERK1/2 after washout [1] | relative p-MEK1/2 after washout (p-MEK in A375 cells) | apparent in vitro residence time (Koff) (full length BRAF^V600E) | IC50 (RKO cells; Homo sapiens, 72 h) | IC50 (RKO cells; 72 hr) | IC50 (A375 cells) | IC50 (SK-MEL-239-C4 cells) | melting temperature (Tm) (BRAF^V600E [2]) | IC50 of pERK inhibition [3] | other results |
| --- | --- | --- | --- | --- | --- | --- | --- | --- | --- | --- | --- | --- |
| COC(=O)N[C@@H](CN)CNc1nccc(-c2sc(C(C)(C)C)nc2-c2cccc(NS(=O)(=O)c3c(F)cccc3F)c2F)n1 [Compound K8] | – | Almost complete p-MEK1/2 inhibition over time | prolonged ERK signaling inhibition over time | prolonged signaling inhibition over time | – | – | – | – | – | – | – | – |
| CC(C)(C)c1nc(-c2cccc(NS(=O)(=O)c3c(F)cccc3F)c2F)c(-c2ccnc(N)n2)s1 [DAB, dabrafenib] | > 400 nM | – | – | – | significantly shorter residence times | > 400 nM | 425 nM | 5.3 nM | 456 nM | very similar | lower IC50 | – |
| C[C@@H](CNc1nccc(-c2sc(C(C)(C)C)nc2-c2cccc(NS(=O)(=O)c3c(F)cccc3F)c2F)n1)NC(=O)CCO [Compound K6] | – | Almost complete p-MEK1/2 inhibition over time | prolonged ERK signaling inhibition over time | prolonged signaling inhibition over time | – | – | – | – | – | – | – | – |
| COC(=O)N[C@@H](C)CNc1nccc(-c2sc(C(C)(C)C)nc2-c2cccc(NS(=O)(=O)c3c(F)cccc3F)c2F)n1 [DABK] | 35 nM | Almost complete p-MEK1/2 inhibition over time | prolonged ERK signaling inhibition over time | prolonged signaling inhibition over time | sustained binding in the time frame of the experiment | 20 nM | 20.6 nM | 3.4 nM | 35.3 nM | very similar | comparable IC50 to Enco | targeting selectivity across the kinome (panel of 97 kinases): improved compared to DAB's; also recorded: improved targeting selectivity across the kinome; also recorded: higher specificity than DAB; extent of antiproliferative synergy (A549 cells): strong synergy; Kd, binding affinity (BRAF^V600E [4]): low nM range; IC50, kinase inhibitory activity (BRAF^V600E [5]): low nM range; half-life of recovery of pMEK inhibition (p-MEK in A375 cells; A375, 500 nM for 1 h, then wash-out): 2.5 hours; retention of p-MEK inhibition relative to DAB (p-MEK in A375 cells; A375 wash-out, times longer than DAB): approximately 4.4 times; endurance of pERK inhibition in tumors [6]: > 12 hr; clearance from the blood [7]: faster clearance from the blood than DAB |

Further lines, with some results ahead:

| IC50 (SK-MEL-239-C4 cells; 72 h) | SMILES | p-MEK1/2 inhibition after washout [1] | relative p-ERK1/2 after washout [1] | relative p-MEK1/2 after washout (p-MEK in A375 cells) | apparent in vitro residence time (Koff) (full length BRAF^V600E) | IC50 (RKO cells; Homo sapiens, 72 h) | IC50 (RKO cells; 72 hr) | IC50 (A375 cells) | IC50 (SK-MEL-239-C4 cells) | melting temperature (Tm) (BRAF^V600E [2]) | IC50 of pERK inhibition [3] | other results |
| --- | --- | --- | --- | --- | --- | --- | --- | --- | --- | --- | --- | --- |
| > 400 nM | COC(=O)N[C@@H](C)CNc1nccc(-c2cn(C(C)C)nc2-c2cc(Cl)cc(NS(C)(=O)=O)c2F)n1 [Enco, encorafenib] | – | – | – | sustained binding in the time frame of the experiment | > 400 nM | – | – | – | – | – | – |
| > 400 nM | CCCS(=O)(=O)Nc1ccc(F)c(C(=O)c2c[nH]c3ncc(-c4ccc(Cl)cc4)cc23)c1F [VEM, vemurafenib] | – | – | – | – | > 400 nM | – | – | – | – | – | – |
